Results as given in the supplement of paper PMC10702517.
Counter-ions that a name gives are not always drawn. ± gives the standard deviation. Each block holds one molecule with its values, some of them ahead of it.

Test: chemical recovery from spiked human plasma; higher = better extraction
Details: pooled human plasma
[1] = extraction method: PES+SPE (3 d PDMS equilibration then HLB SPE)
[2] = extraction method: SPE only (HLB 96-well)
[3] = extraction method: solvent precipitation (ACN + hexane)
[4] = extraction method: SPE only (HLB 96-well), PES comparison experiment

Compound: Nc1ccccc1[N+](=O)[O-] [2-Nitroaniline]
chemical recovery [2]: 25.1 ± 5.2%

Compound: COCCOCCOCCOCCOC [Tetraglyme]
chemical recovery [1]: 31.9 ± 3.7% | chemical recovery [2]: 28.4 ± 3.6% | chemical recovery [4]: 39.7 ± 9% | chemical recovery [3]: 76.1 ± 3.7%

Compound: CCOP(=S)(OCC)SCSCC [Phorate]
chemical recovery [1]: 0.327 ± 0.035% | chemical recovery [2]: 10.2 ± 3.3% | chemical recovery [3]: 37.8 ± 3.6%

Compound: Cc1nccc2c1[nH]c1ccccc12 [Harman]
chemical recovery [1]: 36.2 ± 5.5% | chemical recovery [2]: 34.9 ± 2.5% | chemical recovery [4]: 48.2 ± 6% | chemical recovery [3]: 74.4 ± 3.2%

Compound: Cc1cccc(C)c1N [2,6-Xylidine]
chemical recovery [2]: 7.08 ± 5% | chemical recovery [3]: 48 ± 3.5%

Compound: O=C(O)C(F)(F)C(F)(F)C(F)(F)C(F)(F)F [Perfluoropentanoic-acid]
chemical recovery [1]: 32.1 ± 3.4% | chemical recovery [2]: 31.1 ± 3.3% | chemical recovery [3]: 78.1 ± 8.5%

Compound: CC(Oc1ccc(Oc2ncc(C(F)(F)F)cc2Cl)cc1)C(=O)O (stereo not given) [Haloxyfop-P]
chemical recovery [1]: 41 ± 2.6% | chemical recovery [2]: 33.1 ± 3.1% | chemical recovery [3]: 68.1 ± 2.8%

Compound: Oc1cc(Cl)ccc1Oc1ccc(Cl)cc1 [Diclosan]
chemical recovery [2]: 32.1 ± 2.6% | chemical recovery [3]: 41.7 ± 3.2%

Compound: CNC(=O)O/N=C(\SC)C(=O)N(C)C [Oxamyl]
chemical recovery [2]: 28 ± 2.6% | chemical recovery [3]: 6.16 ± 4.2%

Compound: Nc1ccc2c(n1)[nH]c1ccccc12 [2-Amino-9H-pyrido[2,3-b]indole-(AalphaC)]
chemical recovery [1]: 17.4 ± 2.8% | chemical recovery [2]: 32.5 ± 2.4% | chemical recovery [3]: 62.4 ± 5.3%

Compound: Oc1ccc2c(c1)[C@@]13CCCC[C@@]1(O)[C@@H](C2)N(CC1CCC1)CC3 [Butorphanol]
chemical recovery [2]: 34.7 ± 9.8% | chemical recovery [3]: 65.5 ± 6.6%

Compound: Cc1cc2ccccc2cc1C [2,3-Dimethylnaphthalene]
chemical recovery [2]: 0.0627 ± 0.11%

Compound: O=S(=O)(O)C(F)(F)C(F)(F)C(F)(F)C(F)(F)C(F)(F)C(F)(F)C(F)(F)F [Perfluoroheptanesulfonic-acid]
chemical recovery [1]: 38.6 ± 6.2% | chemical recovery [2]: 35.6 ± 2% | chemical recovery [3]: 61.6 ± 3.8%

Compound: CS(=O)(=O)OC[C@H](O)[C@@H](O)COS(C)(=O)=O [Treosulfan]
chemical recovery [1]: 7.98 ± 1.3% | chemical recovery [2]: 18.7 ± 3.8%

Compound: Cc1cc(Cl)ccc1OCCCC(=O)O [MCPB]
chemical recovery [1]: 44.6 ± 2% | chemical recovery [2]: 35.9 ± 1.6% | chemical recovery [3]: 66.9 ± 4.5%

Compound: C#CCOS(=O)OC1CCCCC1Oc1ccc(C(C)(C)C)cc1 (stereo not given) [Propargite]
chemical recovery [2]: 42.4 ± 10%

Compound: Nc1nc(N)nc(N)n1 [Melamine]
chemical recovery [1]: 2.47 ± 0.79% | chemical recovery [2]: 1.58 ± 0.33% | chemical recovery [4]: 0.589 ± 1.2%

Compound: c1ccc2cc3c(cc2c1)sc1ccccc13 [Benzo[b]naphtho(2,3-d)thiophene]
chemical recovery [1]: 61.7 ± 20% | chemical recovery [2]: 0.871 ± 0.26% | chemical recovery [3]: 63.3 ± 6.8%

Compound: CC[C@@H](C(N)=O)N1CCCC1=O [Levetiracetam]
chemical recovery [2]: 21.4 ± 8.7% | chemical recovery [3]: 78 ± 3.8%

Compound: CCCCCCOC(=O)c1ccccc1C(=O)OCCCCCC [Dihexyl-phthalate]
chemical recovery [2]: 20.6 ± 3.2%

Compound: CC(C)Oc1cccc(NC(=O)c2ccccc2C(F)(F)F)c1 [Flutolanil]
chemical recovery [1]: 53.5 ± 4.5% | chemical recovery [2]: 38.9 ± 0.5% | chemical recovery [3]: 60.8 ± 4.7%

Compound: COP(=O)(NC(C)=O)SC (stereo not given) [Acephate]
chemical recovery [1]: 3.58 ± 0.54% | chemical recovery [2]: 5.48 ± 5.2%

Compound: COc1cc(OC)nc(NC(=O)NS(=O)(=O)c2cc(NC=O)ccc2C(=O)N(C)C)n1 [Foramsulfuron]
chemical recovery [3]: 69 ± 4.2%

Compound: O=C(O)C(F)(OC(F)(F)C(F)(F)C(F)(F)F)C(F)(F)F (stereo not given) [HFPO-DA]
chemical recovery [2]: 30.7 ± 3% | chemical recovery [3]: 67.4 ± 3.1%

Compound: CCCCCCCCCCCCOS(=O)(=O)O [Dodecyl sulfate]
chemical recovery [2]: 33.8 ± 0.79%

Compound: C1CCC(NC2CCCCC2)CC1 [Dicyclohexylamine]
chemical recovery [2]: 35.2 ± 2.1% | chemical recovery [3]: 53.8 ± 6.1%

Compound: Cc1c([N+](=O)[O-])c(C)c([N+](=O)[O-])c(C(C)(C)C)c1[N+](=O)[O-] [Musk xylene]
chemical recovery [2]: 97.1 ± 31% | chemical recovery [3]: 33.5 ± 9.3%

Compound: CCCC[N+]1(C)[C@H]2CC(OC(=O)C(CO)c3ccccc3)C[C@H]1[C@H]1O[C@H]12 (stereo not given in full) [Scopolamine-N-butyl]
chemical recovery [1]: 42.2 ± 2.6% | chemical recovery [2]: 38.4 ± 3.4% | chemical recovery [4]: 44.2 ± 6.1% | chemical recovery [3]: 65.8 ± 3.2%

Compound: c1ccc2c(c1)Nc1ccccc1S2 [Phenothiazine]
chemical recovery [3]: 41.2 ± 4.4%

Now from value to molecule:

chemical recovery [1]: 11 ± 2.9% | chemical recovery [2]: 26.5 ± 3.5% | chemical recovery [3]: 55 ± 2.7%
Compound: COc1cc(Cl)c(OC)cc1N [4-Chloro-2,5-dimethoxyaniline]

chemical recovery [1]: 1.08 ± 0.9% | chemical recovery [2]: 37.5 ± 7.4% | chemical recovery [4]: 42.3 ± 6.8% | chemical recovery [3]: 67.9 ± 4.2%
Compound: CCN(CC)CC(=O)Nc1c(C)cccc1C [Lidocaine]

chemical recovery [2]: 1.23 ± 0.72%
Compound: CC[N+](CC)(CC)CC [Tetraethylammonium]

chemical recovery [2]: 14.2 ± 4.3% | chemical recovery [3]: 71.1 ± 4.1%
Compound: Nc1nc(=O)n([C@@H]2CS[C@H](CO)O2)cc1F [Emtricitabine]

chemical recovery [1]: 40.6 ± 4.9% | chemical recovery [2]: 41.3 ± 3% | chemical recovery [4]: 49.3 ± 3.5% | chemical recovery [3]: 80.4 ± 4.5%
Compound: c1ccc2[nH]c(-c3cscn3)nc2c1 [Thiabendazole]

chemical recovery [2]: 21.9 ± 6.3%
Compound: CCCCCCCCCCCCOC(=O)c1cc(O)c(O)c(O)c1 [Lauryl-gallate]

chemical recovery [1]: 27.3 ± 3.6% | chemical recovery [2]: 32.7 ± 2.9% | chemical recovery [3]: 73.8 ± 2.2%
Compound: Cc1cc(N)c2ccccc2n1 [4-Amino-2-methylquinoline]

chemical recovery [1]: 42.3 ± 4.4% | chemical recovery [2]: 43.9 ± 4.5% | chemical recovery [3]: 68.1 ± 5.1%
Compound: CCN(CC)C(=O)c1cccc(C(=O)O)c1 [DEET-carboxylic-acid]

chemical recovery [4]: 42.1 ± 11% | chemical recovery [3]: 74.7 ± 4.9%
Compound: CCC[C@@H]1C[C@@H](C(=O)N[C@@H]([C@H]2O[C@H](SC)[C@H](O)[C@@H](O)[C@H]2O)[C@@H](C)O)N(C)C1 [Lincomycin]

chemical recovery [2]: 0.169 ± 0.033% | chemical recovery [3]: 41 ± 2.4%
Compound: CC1CC(OC(=O)c2ccccc2O)CC(C)(C)C1 (stereo not given) [Homosalate]

chemical recovery [1]: 42.8 ± 4.4% | chemical recovery [2]: 44.8 ± 1.8% | chemical recovery [3]: 50.3 ± 6.1%
Compound: C=CCc1ccc(O)c(OC)c1 [Eugenol]

chemical recovery [1]: 33.4 ± 2.7% | chemical recovery [2]: 30 ± 3.4% | chemical recovery [3]: 72.7 ± 3.6%
Compound: N[C@@H](CC(=O)N1CCn2c(nnc2C(F)(F)F)C1)Cc1cc(F)c(F)cc1F [Sitagliptin]

chemical recovery [1]: 54.3 ± 19% | chemical recovery [2]: 1.65 ± 0.55% | chemical recovery [3]: 30.1 ± 2.7%
Compound: ClC=C(c1ccc(Cl)cc1)c1ccc(Cl)cc1 [4,4'-DDMU]

chemical recovery [1]: 0.141 ± 0.063% | chemical recovery [2]: 0.399 ± 0.15% | chemical recovery [3]: 49.1 ± 4.3%
Compound: CN1CCC[C@H]1c1cccnc1 [Nicotine]

chemical recovery [1]: 2.9 ± 1.6% | chemical recovery [2]: 2.07 ± 3.6% | chemical recovery [3]: 35.9 ± 9.5%
Compound: NC1CCCCC1 [Cyclohexylamine]

chemical recovery [2]: 22.8 ± 4.1%
Compound: CCCCC(CC)COC(=O)c1ccc(N(C)C)cc1 (stereo not given) [Padimate-O]

chemical recovery [1]: 56.7 ± 5.2% | chemical recovery [2]: 36.5 ± 12% | chemical recovery [3]: 47.5 ± 1.9%
Compound: Cc1c(Cl)cccc1Nc1ccccc1C(=O)O [Tolfenamic-acid]

chemical recovery [2]: 44.7 ± 3.3% | chemical recovery [3]: 65.5 ± 6.9%
Compound: CC(C)COC(=O)c1ccccc1C(=O)O [Mono-iso-butyl-phthalate]

chemical recovery [1]: 19.8 ± 2.5% | chemical recovery [2]: 42 ± 3.9% | chemical recovery [3]: 72.5 ± 3.6%
Compound: COc1ccc2[nH]c(SCc3ncc(C)c(OC)c3C)nc2c1 [Omeprazole-sulfide]

chemical recovery [2]: 14.3 ± 7.5%
Compound: C/C(=C\c1ccccc1)c1ccccc1 [trans-a-Methylstilben]

chemical recovery [4]: 16.6 ± 4.9%
Compound: CC[C@H](C)[C@H]1O[C@]2(CC[C@@H]1C)C[C@@H]1C[C@@H](C/C=C(\C)[C@@H](O[C@H]3C[C@H](OC)[C@@H](O[C@H]4C[C@H](OC)[C@@H](O)[C@H](C)O4)[C@H](C)O3)[C@@H](C)/C=C/C=C3\CO[C@@H]4[C@H](O)C(C)=C[C@@H](C(=O)O1)[C@]34O)O2 [Ivermectin B1a]

chemical recovery [1]: 53.5 ± 11% | chemical recovery [2]: 28.9 ± 1.5% | chemical recovery [3]: 46.3 ± 5.3%
Compound: CC(C)N1C(=O)c2ccccc2N(C)S1(=O)=O [Bentazone-methyl]

chemical recovery [1]: 39.2 ± 3.2% | chemical recovery [2]: 45 ± 1.5% | chemical recovery [4]: 48 ± 6.2% | chemical recovery [3]: 72.5 ± 4.2%
Compound: COc1cc(Cc2cnc(N)nc2N)cc(OC)c1OC [Trimethoprim]

chemical recovery [1]: 42.8 ± 3.6% | chemical recovery [2]: 35.7 ± 3.2% | chemical recovery [3]: 76.1 ± 3.5%
Compound: C[C@@H](O)CCCCn1c(=O)c2c(ncn2C)n(C)c1=O [Lisofylline]

chemical recovery [1]: 16.9 ± 4.1% | chemical recovery [2]: 4.01 ± 3.3% | chemical recovery [3]: 72 ± 2.6%
Compound: c1ccc2[nH]cnc2c1 [Benzimidazole]

chemical recovery [1]: 15 ± 1.5% | chemical recovery [2]: 52.7 ± 6.3%
Compound: Nc1ccc2nc3c(N)cccc3nc2c1 [1,7-Diaminophenazine]

chemical recovery [2]: 29.7 ± 1.9%
Compound: CC(C)c1ccc2c(c1)CC[C@H]1[C@](C)(C(=O)O)CCC[C@]21C [Dehydroabietic-acid]

chemical recovery [1]: 56.7 ± 6.3% | chemical recovery [2]: 42.1 ± 4.9% | chemical recovery [3]: 72.1 ± 4.6%
Compound: CC(C)C1C2CCC1c1c(NC(=O)c3cn(C)nc3C(F)F)cccc12 (stereo not given) [Isopyrazam]

chemical recovery [3]: 63.9 ± 7.4%
Compound: CCCCCCCCCCCCCCCC[N+](C)(C)Cc1ccccc1 [Benzyldimethylhexadecylammonium]

chemical recovery [1]: 41.4 ± 3.8% | chemical recovery [2]: 35.5 ± 3.4% | chemical recovery [4]: 43.6 ± 5.5% | chemical recovery [3]: 76.7 ± 3.9%
Compound: CCNc1nc(NC(C)(C)C)[nH]c(=O)n1 [Terbuthylazine-2-hydroxy]

chemical recovery [2]: 6.04 ± 3.4% | chemical recovery [4]: 4.77 ± 1.6%
Compound: CC(C)CCCCCCOC(=O)C1CCCCC1C(=O)OCCCCCCC(C)C (stereo not given) [DINCH]

chemical recovery [1]: 17.1 ± 4.2% | chemical recovery [2]: 14 ± 6.1% | chemical recovery [3]: 76 ± 2.5%
Compound: CC(C)NCC(O)COc1ccc(CC(N)=O)cc1 (stereo not given) [Atenolol]

chemical recovery [1]: 49 ± 6.5% | chemical recovery [2]: 40.1 ± 3.3% | chemical recovery [3]: 73.7 ± 3.7%
Compound: Cc1cccc(C)c1N(Cn1cccn1)C(=O)CO [Metazachlor-2-hydroxy]

chemical recovery [1]: 37.5 ± 5% | chemical recovery [2]: 45.2 ± 13%
Compound: O=C(O)/C=C/c1c[nH]c2ccccc12 [Indole-3-acrylic-acid]

chemical recovery [2]: 15.4 ± 9.1% | chemical recovery [3]: 54.1 ± 4.6%
Compound: Cc1ccc(O)c(-n2nc3ccccc3n2)c1 [Drometrizole]

chemical recovery [1]: 39.1 ± 9.8% | chemical recovery [2]: 13.7 ± 2.7% | chemical recovery [3]: 99.6 ± 18%
Compound: CC1COCc2cc3c(cc21)C(C)(C)C(C)C3(C)C (stereo not given) [Galaxolide]

chemical recovery [1]: 24.5 ± 2.7% | chemical recovery [2]: 30.7 ± 4.5% | chemical recovery [3]: 12.5 ± 2.5%
Compound: COC(=O)CC(O)(CC(=O)OC)C(=O)OC [Trimethylcitrate]

chemical recovery [2]: 5.69 ± 2.6% | chemical recovery [3]: 58.4 ± 13%
Compound: CC(C)(C)c1cc(Cn2c(=O)n(Cc3cc(C(C)(C)C)c(O)c(C(C)(C)C)c3)c(=O)n(Cc3cc(C(C)(C)C)c(O)c(C(C)(C)C)c3)c2=O)cc(C(C)(C)C)c1O [Antioxidant-3114]

chemical recovery [1]: 6.91 ± 1.9% | chemical recovery [2]: 39.3 ± 2.3% | chemical recovery [3]: 73.8 ± 2%
Compound: Cc1c(N(C)C)c(=O)n(-c2ccccc2)n1C [Dimethylaminophenazone]

chemical recovery [2]: 43 ± 3.8%
Compound: CCCC[N+](CCCC)(CCCC)CCCC [Tetrabutylammonium]
